Experimental data taken from US20240197678A1, “INHIBITORS OF THE PEPTIDYL-PROLYL CIS/TRANS ISOMERASE (PIN1) AND USES THEREOF” (DANA-FARBER CANCER INSTITUTE, INC., priority 2021, published 2024).
Entries after “also recorded” stand apart in the source; their conditions may differ.

Experiments:
[1] = molecular target: T1, Pin1 (Homo sapiens, UniProt Q13526); experiment: Fluorescence polarization (FP) assay, binding to Pin1; settings: for Ki: 1 h incubation with Pin1, read-out: Ki (binding affinity to Pin1, Kenakin Ki from FP EC50)
T1 sequence (Q13526 whole entry): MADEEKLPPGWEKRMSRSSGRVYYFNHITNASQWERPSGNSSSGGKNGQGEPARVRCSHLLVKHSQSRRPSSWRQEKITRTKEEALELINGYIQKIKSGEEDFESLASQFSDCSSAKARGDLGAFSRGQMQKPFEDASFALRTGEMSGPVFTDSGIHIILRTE
Procedure: FIG. 3 is a fluorescence polarization readout following 1 h incubation of the indicated compounds with Pin1. Data points are plotted as the average of n=3 independent samples+SEM. Binding affinity to Pin1 was determined using a fluorescence polarization assay. Ki values obtained from the FP assay results were derived from the Kenakin Ki equation: Kenakin Ki=(Lb)(EC50)(Kd)/(Lo)(Ro)+Lb(Ro−Lo+Lb−Kd), where Kd [M]: Kd of the probe, EC50 [M]: obtained from FP assay, total tracer Lo [M]: probe concentration in FP, bound tracer Lb [M]: 85% of probe concentration binds to target protein, total receptor Ro [M]: Pin1 concentration in the FP assay, as described (Auld et al. Receptor binding assays for HTS and drug discovery. in Assay Guidance Manual eds. Sittampalam, G.S., et al. Eli Lilly & Company and the National Center for Advancing Translational Sciences, 2004).

[2] = molecular target: T1, Pin1; experiment: Molt4 cells competition with Pin1-3 desthiobiotin probe, streptavidin pull-down and immunoblot (Pin1 engagement); format: cell-based; design: endogenous in cells; host or cells: Molt4; settings: Molt4 cells treated 5 h, streptavidin pull-down, immunoblot
Procedure: FIG. 4 is an immunoblot displaying the result of Molt4 cells treated in a competition format with the indicated concentrations of Pin1-3, Pin1-3 P1, and Pin1-3 P2 for 5 h, followed by cell lysis, incubation with TM-03-163 (Pin1-3 desthiobiotin), streptavidin pull-down, and immunoblot analysis. […] Molt4 cells were treated in a competition format with Pin1-3, Pin1-3 P1, and Pin1-3 P2 for 5 h, followed by cell lysis, incubation with […] (Pin1-3 desthiobiotin), followed by streptavidin pulldown and immunoblot analysis.

SMILES	Ki [1] [nM]	Engagement of Pin1 in Molt4 cells [2]	Ki (binding affinity to Pin1, Kenakin Ki from FP EC50) ([1]; 1 h incubation with Pin1)
CC(C)(C)CN(C(=O)CCl)C1CCS(=O)(=O)C1 (racemic) [Pin1-3, reference compound]	~286		
CC(C)(C)CN(C(=O)CCl)[C@@H]1CCS(=O)(=O)C1 (single isomer, unassigned) [Pin1-3 P1]	~70	engages Pin1 more potently than Pin1-3	
CC(C)(C)CN(C(=O)CCl)[C@H]1CCS(=O)(=O)C1 [Pin1-3 P2, (S)-2-chloro-N-(1,1-dioxidotetrahydrothiophen-3-yl)-N-neopentylacetamide]		did not display engagement; also recorded: no engagement	unable to be determined
